Measurements taken from PubChem BioAssay AID248 (DTP/NCI, 2004).
Inconclusive results and toxic doses are left out.

System: L1210 leukemia ip in BDF1 mice, survival T/C
Test: NCI In Vivo Anticancer Drug Screen. Data for tumor model L1210 Leukemia (intraperitoneal) in B6D2F1 (BDF1) mice
Details: endpoint: mean survival time, higher = longer survival
How it was run: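 Read-out is survival time, reported as the treated-group measurement over the vehicle-control measurement.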

[1] = dose: 100.0 mg/kg/injection, schedule: Q01DX009 (ip), vehicle: saline
[2] = dose: 200.0 mg/kg/injection, schedule: Q01DX009 (ip), vehicle: saline
[3] = dose: 50.0 mg/kg/injection, schedule: Q01DX001 (ip), vehicle: saline
[4] = dose: 100.0 mg/kg/injection, schedule: Q01DX001 (ip), vehicle: saline

Structure (SMILES): CCCCCCCCC/C(C)=N/NC(=O)c1ccc[n+](C)c1
- T/C (dose: 50.0 mg/kg/injection, schedule: Q01DX009 (ip), vehicle: saline): 93 % of control
- T/C [1]: 93 % of control
- T/C [2]: 96 % of control

Structure (SMILES): Nc1cccs1
- T/C (dose: 8.12 mg/kg/injection, schedule: Q01DX009 (ip), vehicle: saline): 100 % of control
- T/C (dose: 9.37 mg/kg/injection, schedule: Q01DX009 (ip), vehicle: other): 94 % of control
- T/C (dose: 16.25 mg/kg/injection, schedule: Q01DX009 (ip), vehicle: saline): 100 % of control
- T/C (dose: 18.75 mg/kg/injection, schedule: Q01DX009 (ip), vehicle: other): 107 % of control
- T/C (dose: 37.5 mg/kg/injection, schedule: Q01DX009 (ip), vehicle: other): 107 % of control
- T/C (dose: 75.0 mg/kg/injection, schedule: Q01DX009 (ip), vehicle: other): 96 % of control
- T/C [1]: 153 % of control
- T/C (dose: 150.0 mg/kg/injection, schedule: Q01DX009 (ip), vehicle: other): 96 % of control
- T/C (dose: 300.0 mg/kg/injection, schedule: Q01DX009 (ip), vehicle: other): 102 % of control

Structure (SMILES): COC1(OC)C2CCC1C(O)C2 (stereo not given)
- T/C [1]: 104 % of control
- T/C [2]: 105 % of control

Structure (SMILES): CCCCN1C(=O)C2CCC34C5C(=O)N(CCCC)C(=O)C5C5C=CC3(C2C1=O)C1C(=O)N(CCCC)C(=O)C1N54 (stereo not given)
- T/C (dose: 50.0 mg/kg/injection, schedule: Q01DX009 (ip), vehicle: Klucel (hydroxypropylcellulose) (HPC)): 99 % of control
- T/C (dose: 100.0 mg/kg/injection, schedule: Q01DX009 (ip), vehicle: Klucel (hydroxypropylcellulose) (HPC)): 99 % of control
- T/C (dose: 200.0 mg/kg/injection, schedule: Q01DX009 (ip), vehicle: Klucel (hydroxypropylcellulose) (HPC)): 97 % of control
- T/C (dose: 400.0 mg/kg/injection, schedule: Q01DX009 (ip), vehicle: Klucel (hydroxypropylcellulose) (HPC)): 97 % of control

Structure (SMILES): Cc1nnn2ccccc12
- T/C (dose: 25.0 mg/kg/injection, schedule: Q01DX001 (ip), vehicle: saline): 96 % of control
- T/C [3]: 100 % of control
- T/C [4]: 100 % of control

Structure (SMILES): CC(C)(C)NC(=O)NCc1ccccc1Cl
- T/C (dose: 100.0 mg/kg/injection, schedule: Q04DX002 (ip), vehicle: Klucel (hydroxypropylcellulose) (HPC)): 96 % of control
- T/C (dose: 200.0 mg/kg/injection, schedule: Q04DX002 (ip), vehicle: Klucel (hydroxypropylcellulose) (HPC)): 96 % of control
- T/C (dose: 400.0 mg/kg/injection, schedule: Q04DX002 (ip), vehicle: Klucel (hydroxypropylcellulose) (HPC)): 100 % of control

Structure (SMILES): c1ccc(C2CC([P+](c3ccccc3)(c3ccccc3)c3ccccc3)=NN2)cc1 (stereo not given)
- T/C (dose: 3.12 mg/kg/injection, schedule: Q01DX009 (ip), vehicle: Klucel (hydroxypropylcellulose) (HPC)): 103 % of control
- T/C (dose: 6.25 mg/kg/injection, schedule: Q01DX009 (ip), vehicle: Klucel (hydroxypropylcellulose) (HPC)): 120 % of control
- T/C (dose: 6.25 mg/kg/injection, schedule: Q04DX003 (ip), vehicle: Klucel (hydroxypropylcellulose) (HPC)): 110 % of control
- T/C (dose: 12.5 mg/kg/injection, schedule: Q01DX002 (ip), vehicle: Klucel (hydroxypropylcellulose) (HPC)): 114 % of control
- T/C (dose: 12.5 mg/kg/injection, schedule: Q01DX009 (ip), vehicle: Klucel (hydroxypropylcellulose) (HPC)): 92 % of control
- T/C (dose: 12.5 mg/kg/injection, schedule: Q04DX003 (ip), vehicle: Klucel (hydroxypropylcellulose) (HPC)): 108 % of control
- T/C (dose: 25.0 mg/kg/injection, schedule: Q01DX001 (ip), vehicle: Klucel (hydroxypropylcellulose) (HPC)): 104 % of control
- T/C (dose: 25.0 mg/kg/injection, schedule: Q01DX002 (ip), vehicle: Klucel (hydroxypropylcellulose) (HPC)): 104 % of control
- T/C (dose: 25.0 mg/kg/injection, schedule: Q04DX003 (ip), vehicle: Klucel (hydroxypropylcellulose) (HPC)): 108 % of control
- T/C (dose: 50.0 mg/kg/injection, schedule: Q01DX001 (ip), vehicle: Klucel (hydroxypropylcellulose) (HPC)): 97 % of control
- T/C (dose: 50.0 mg/kg/injection, schedule: Q01DX002 (ip), vehicle: Klucel (hydroxypropylcellulose) (HPC)): 97 % of control
- T/C (dose: 50.0 mg/kg/injection, schedule: Q04DX003 (ip), vehicle: Klucel (hydroxypropylcellulose) (HPC)): 97 % of control

Structure (SMILES): O=C(CCCC(=O)N/N=C/c1ccccc1[N+](=O)[O-])N/N=C\c1ccccc1[N+](=O)[O-]
- T/C [3]: 112 % of control
- T/C [4]: 106 % of control
- T/C (dose: 200.0 mg/kg/injection, schedule: Q01DX001 (ip), vehicle: saline): 101 % of control
- T/C (dose: 400.0 mg/kg/injection, schedule: Q01DX001 (ip), vehicle: saline): 101 % of control
